US6271342A, “Sugar-modified cytostatics” (Bayer Aktiengesellschaft, priority 1995, dated 2001)
Where a name gives a salt, the structure may show the parent alone.

Columns and labels:
Assay in all cases: Growth inhibition test (MTT) for cytotoxic properties
B 16 F 10 = format: cell-based, mouse; settings: Table 1b
Experimental: (§1) Growth Inhibition Test for Determination of the Cytotoxic Properties of Glycoconjugates of Batracyline and of Quinolone-a
(§2) The human colon cell lines SW 480 and HT 29 (ATCC no. CCL 228 and HBT-38) and the mouse melanoma cell line B 16 F 10 were cultured in Roux dishes in RPMI 1640 medium with addition of 10% FCS. The cultures were then trypsinized and taken up in RPMI plus 10% FCS to a cell count of 50,000 cells/ml. 100 μl of cell suspension/well were introduced into a 96 microwell plate and incubated for 1 day at 37° C. in a CO2 incubating cabinet. A further 100 μl of RPMI medium and 1 μl of dimethyl sulphoxide with the test substances were then added. The growth was checked after day 3 and day 6. 40 μl of MTT solution (3-(4,5-dimethylthiazol-2-yl)-2,5-diphenyltetrazoline bromide) with an initial concentration of 5 mg/ml of H2 O were added to each microwave. The plate was incubated for 5 hours in a CO2 incubating cabinet at 37° C. The medium was then sucked off and 100 μl of i-propanol/well were added. After shaking for 30 minutes with 100 μl of H2 O, the extinction was measured at 540 nm with a Titertek Multiskan MCC/340 (Flow).

SW 480 = format: cell-based, human
Experimental: as §1, §2
(§3) The cytotoxic action of the glycoconjugates of batracyline described is shown in Table 1a as the IC50 value in each case for the SW 480 and HT 29 cell lines.

HT 29 = format: cell-based, human
Experimental: as §1, §2, §3

[1] = Table 1a, glycoconjugates of batracyline

Compound	IC50 (B 16 F 10) [µM]	IC50 (SW 480; Table 1b) [µM]	IC50 (HT 29; Table 1b) [µM]	IC50 (SW 480; [1]) [µM]	IC50 (HT 29; [1]) [µM]
CC1OC(Oc2ccc(NC(=S)NC3C=CCC4CN(c5c(F)cc6c(=O)c(C(=O)O)cn(C7CC7)c6c5Cl)CC43)cc2)C(O)C(OCC(=O)O)C1O (mixture of isomers) [Example 12.12, N-[O-(3-O-Carboxymethyl-β-L-fucosyl)-4hydroxy-phenylamino-thiocarbonyl-quinolone-a, di-sodium salt]	0.5	8	13	–	–
Cc1csc2c(C(=O)O)c(=O)c3cc(F)c(N4CC5C(C)C=CC(NC(=O)C(CCCCN)NC(=S)Nc6ccc(OC7OC(C)C(O)C(OCC(=O)O)C7O)cc6)C5C4)cc3n12 (mixture of isomers) [Example 14.3, N-{N^α -[O-(3-O-Carboxymethyl-β-L-fucosyl)-4-hydroxy-phenylamino-thiocarbonyl]-lysyl}-quinolone-c, di-sodium salt]	4	8	4	–	–
C[C@@H]1O[C@H](Oc2ccc(NC(=S)NCCCC[C@H](N)C(=O)N[C@H](C)C(=O)NC3C=CCC4CN(c5c(F)cc6c(=O)c(C(=O)O)cn(C7CC7)c6c5Cl)CC43)cc2)[C@@H](O)[C@H](OCC(=O)O)[C@@H]1O (stereo partly drawn) [Example 10.1, N-{N^ε -[O(3-O-Carboxymethyl-β-L-fucosyl)-4-hydroxy-phenylamino-thiocarbonyl]-lysyl-D-alanyl}-quinolone-a]	15	50	> 250	–	–
CO[C@H]1[C@H](O)[C@@H](Oc2ccc(NC(=S)NCCCC[C@H](N)C(=O)N[C@@H](C)C(=O)NC3C=CCC4CN(c5c(F)cc6c(=O)c(C(=O)O)cn(C7CC7)c6c5Cl)CC43)cc2)O[C@@H](C)[C@H]1O (stereo partly drawn) [Example 10.2, N-{N^ε -[O-(3-O-Methyl-β-L-fucosyl)-4-hydroxy-phenylamino-thiocarbonyl]-lysyl-alanyl}-quinolone-a]	5	4	3	–	–
CO[C@H]1[C@H](O)[C@@H](Oc2ccc(NC(=S)NCCCC[C@H](N)C(=O)NC3C=CCC4CN(c5c(F)cc6c(=O)c(C(=O)O)cn(C7CC7)c6c5Cl)CC43)cc2)O[C@@H](C)[C@H]1O (stereo partly drawn) [Example 10.3, N-{N^ε -[O-(3-O-Methyl-β-L-fucosyl)-4-hydroxy-phenylamino-thiocarbonyl]-lysyl}-quinolone-a]	0.7	5	4	–	–
C[C@@H]1O[C@H](Oc2ccc(NC(=S)NCCCC[C@H](NC(=S)Nc3ccc(O[C@H]4O[C@@H](C)[C@@H](O)[C@@H](OCC(=O)O)[C@@H]4O)cc3)C(=O)NC3C=CCC4CN(c5c(F)cc6c(=O)c(C(=O)O)cn(C7CC7)c6c5Cl)CC43)cc2)[C@@H](O)[C@H](OCC(=O)O)[C@@H]1O (stereo partly drawn) [Example 11.8, N-{N^α,N^ε -Bis-[O-(3-O-carboxymethyl-β-L-fucosyl)-4-hydroxy-phenylamino-thiocarbonyl]-lysyl}-quinolone-a, di-sodium salt]	15	12	16	–	–
C[C@@H]1O[C@H](Oc2ccc(NC(=S)NCCCC[C@@H](NC(=S)Nc3ccc(O[C@H]4O[C@@H](C)[C@@H](O)[C@@H](OCC(=O)O)[C@@H]4O)cc3)C(=O)NC3C=CCC4CN(c5c(F)cc6c(=O)c(C(=O)O)cn(C7CC7)c6c5Cl)CC43)cc2)[C@@H](O)[C@H](OCC(=O)O)[C@@H]1O (stereo partly drawn) [Example 11.9, N-{N^α,N^ε -Bis-[O-(3-O-carboxymethyl-β-L-fucosyl)-4-hydroxy-phenylamino-thiocarbonyl]-D-lysyl}-quinolone-a, di-sodium salt]	9	12	12	–	–
CO[C@H]1[C@H](O)[C@@H](Oc2ccc(NC(=S)N[C@@H](C)C(=O)NC3C=CCC4CN(c5c(F)cc6c(=O)c(C(=O)O)cn(C7CC7)c6c5Cl)CC43)cc2)O[C@@H](C)[C@H]1O (some centres unmarked) [Example 12.2]	0.8	4	–	–	–
N-{N^α -[O-(3-O-Methyl-β-L-fucosyl)-4-hydroxy-phenylamino-thiocarbonyl]-lysy l-D-alanyl}-batracyline [Example 4.3]	–	–	–	20	20
N-{N^α -[O-(3-O-Methyl-β-L-fucosyl)-4-hydroxyphenylamino-thiocarbonyl]-N. sup.ε -[4-hydroxyethylamino-2-[O-(3-O-methyl-β-L-fucosyl)-4-hydroxyphenylam ino]triazin-6-yl]]-lysyl-D-alanyl}-batracyline [Example 5.8]	–	–	–	100	> 250
N-{N^α -[O-(3-O-Methyl-β-L-fucosyl)-4-hydroxyphenylamino-thiocarbonyl]-N. sup.ε -[O-(3-O-carboxymethyl-β-L-fucosyl)-4-hydroxyphenylamino-thiocarbonyl ]-lysyl-D-alanyl}-batracyline [Example 5.2]	–	–	–	20	55
N-{N^α -[O-(β-D-Galactopyranosyl)-4-hydroxy-phenylamino-thiocarbonyl]-lysyl- D-alanyl}-batracyline [Example 4.6]	–	–	–	10	10
N-{N^α,N^ε -Bis-10-(3-O-carbamoylmethyl-β-D-galactopyranosyl)-4-hydroxy-phenylam ino-thiocarbonyl]-lysyl-glycyl}-batracyline [Example 6.60]	–	–	–	50	40
N-{N^α,N^ε -Bis-[O-(2-hydroxyethyl-β-L-fucosyl)-4-hydroxy-phenylamino-thiocarbon yl]-lysyl-D-alanyl}-batracyline [Example 6.10]	–	–	–	50	50
N-{N^α,N^ε -Bis-[O-(3,4-di-O-methyl-β-D-galactopyranosyl)-4-hydroxy-phenylamino- thiocarbonyl]-lysyl-D-seryl}-batracyline [Example 6.40]	–	–	–	170	60
N-{N^α,N^ε -Bis-[O-(3,4-di-O-methyl-β-D-galactopyranosyl)-4-hydroxy-phenylamino- thiocarbonyl]-lysyl-seryl}-batracyline [Example 6.32]	–	–	–	60	60
N-{N^α,N^ε -Bis-[O-(3-O-carbamoylmethyl-β-D-galactopyranosyl)-4-hydroxy-phenylam ino-thiocarbonyl]-lysyl-D-seryl}-batracyline [Example 6.43]	–	–	–	90	80
N-{N^α,N^ε -Bis-[O-(3-O-carboxymethyl-β-D-galactopyranosyl)-4-hydroxy-phenylamin o-thiocarbonyl]-lysyl-D-asparagyl}-batracyline, di-sodium salt [Example 6.46]	–	–	–	120	100
N-{N^α,N^ε -Bis-[O-(3-O-carboxymethyl-β-D-galactopyranosyl)-4-hydroxy-phenylamin o-thiocarbonyl]-lysyl-glycyl}-batracyline, di-sodium salt [Example 6.59]	–	–	–	50	50
N-{N^α,N^ε -Bis-[O-(3-O-carboxymethyl-β-L-fucosyl)-4-hydroxy-phenylamino-thiocar bonyl]-lysyl}-batracyline [Example 6.25]	–	–	–	50	40
N-{N^α,N^ε -Bis-[O-(3-O-methoxycarbonylmethyl-β-D-galactopyranosyl)-4-hydroxy-ph enylamino-thiocarbonyl]-lysyl-D-alanyl}-batracyline [Example 6.80]	–	–	–	40	25
N-{N^α,N^ε -Bis-[O-(3-O-methyl-α-D-mannopyranosyl)-4-hydroxy-phenylamino-thioca rbonyl]-lysyl-seryl}-batracyline [Example 6.36]	–	–	–	70	70
N-{N^α,N^ε -Bis-[O-(3-O-methyl-β-D-galactopyranosyl)-4-hydroxy-phenylamino-thioc arbonyl]-lysyl-seryl}-batracyline [Example 6.30]	–	–	–	60	70
N-{N^α,N^ε -Bis-[O-(3-O-methyl-β-L-fucosyl)-4-hydroxy-phenylamino-thiocarbonyl]- lysyl-D-seryl}-batracyline [Example 6.23]	–	–	–	107	45
N-{N^α,N^ε -Bis-[O-(3-O-n-propyl-β-L-fucosyl)-4-hydroxy-phenylamino-thiocarbonyl ]lysyl-D-alanyl}-batracyline [Example 6.7]	–	–	–	60	> 250
N-{N^α,N^ε -Bis-[O-(α-L-rhamnosyl)-4-hydroxy-phenylamino-thiocarbonyl]-lysyl-D- alanyl}-batracyline [Example 6.15]	–	–	–	> 250	> 250
N-{N^ε -O-(2-O-Methyl-β-L-fucosyl)-4-hydroxy-phenylamino-thiocarbonyl]-lysyl -D-alanyl}-batracyline [Example 3.2]	–	–	–	100	75
N-{N^ε -[O-(3-O-Carbamoylmethyl-β-L-fucosyl)-4-hydroxy-phenylamino-thiocarbo nyl]-lysyl-D-alanyl}-batracyline, sodium salt [Example 3.10]	–	–	–	100	125
N-{Nα-[O-(β-L-Fucosyl)-4-hydroxy-phenylamino-thiocarbonyl]-lysy l-D-alanyl}-batracyline [Example 4.1]	–	–	–	25	30
